These are literature values, as cited in US12290506B2, “Compositions and formulations for use of a PK inhibitor for the prevention, treatment, and improvement of skin diseases, conditions, and disorders” (DermBiont, Inc., priority 2022, dated 2025).

For the series, the system named is UV induced neo-melanogenesis. As to conditions: topical application, guinea pig model.

For the substance bisindolylmaleimide, the UV induced neo-melanogenesis entry is “inhibit UV induced neo-melanogenesis”.
